# Experiments:
# potassium arsenate = compound: O=[As]([O-])(O)O.[K+] [potassium arsenate]; experiment: thermal stability z-score vs DMSO; higher = more thermally stabilized by treatment; details: HeLa; arsenate concentration 1 mM
# Method: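 Cellular thermal proteome profiling in HeLa cells treated with 1 mM arsenate for 1 h (DMSO pretreatment), heated to ten temperatures (37-66.3 °C). Soluble protein was quantified by TMT mass spectrometry relative to DMSO controls; the thermal stability score was transformed to a z-score; mean of n = 3 experiments.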
# lipoamide = compound: NC(=O)CCCCC1CCSS1 [lipoamide]; experiment: as above; details: HeLa, lipoamide concentration 100 µM
# Method: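 Cellular thermal proteome profiling in HeLa cells. Cells were treated with 100 µM lipoamide for 1 h, with or without 1 mM arsenate for a further 1 h, then heated to ten temperatures (37-66.3 °C), and soluble protein was quantified by TMT mass spectrometry relative to 0.1% DMSO controls. The thermal stability score (sum of log2 fold changes minus the abundance score) was transformed to a z-score; mean of n = 3 experiments.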
# [1] = arsenate co-treatment: 1 mM arsenate 1 h
# 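Note: each temperature applied for 3 min, abundance score taken as mean log2 fold change at the two lowest temperatures, z-score obtained by mean subtraction and division by SD.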
# UniProt Q92994, sequence (Q92994 whole entry): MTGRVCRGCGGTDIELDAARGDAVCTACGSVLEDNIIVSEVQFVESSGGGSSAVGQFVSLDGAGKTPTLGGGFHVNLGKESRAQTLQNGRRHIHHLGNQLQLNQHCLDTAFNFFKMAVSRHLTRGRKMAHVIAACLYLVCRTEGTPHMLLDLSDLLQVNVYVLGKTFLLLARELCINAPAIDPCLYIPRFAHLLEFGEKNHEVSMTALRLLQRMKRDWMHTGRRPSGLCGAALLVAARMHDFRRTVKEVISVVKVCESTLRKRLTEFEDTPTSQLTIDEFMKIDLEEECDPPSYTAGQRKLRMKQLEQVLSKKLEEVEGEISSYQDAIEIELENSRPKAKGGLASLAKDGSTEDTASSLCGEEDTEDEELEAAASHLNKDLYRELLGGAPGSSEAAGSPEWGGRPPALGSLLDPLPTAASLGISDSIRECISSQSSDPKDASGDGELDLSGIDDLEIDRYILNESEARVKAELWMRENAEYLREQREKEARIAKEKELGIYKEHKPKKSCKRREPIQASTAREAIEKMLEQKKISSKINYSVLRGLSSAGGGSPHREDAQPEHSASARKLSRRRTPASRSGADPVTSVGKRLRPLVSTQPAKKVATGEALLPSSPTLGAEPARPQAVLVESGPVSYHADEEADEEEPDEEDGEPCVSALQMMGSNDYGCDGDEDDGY
# UniProt Q9NTK5, sequence (Q9NTK5 whole entry, looked up): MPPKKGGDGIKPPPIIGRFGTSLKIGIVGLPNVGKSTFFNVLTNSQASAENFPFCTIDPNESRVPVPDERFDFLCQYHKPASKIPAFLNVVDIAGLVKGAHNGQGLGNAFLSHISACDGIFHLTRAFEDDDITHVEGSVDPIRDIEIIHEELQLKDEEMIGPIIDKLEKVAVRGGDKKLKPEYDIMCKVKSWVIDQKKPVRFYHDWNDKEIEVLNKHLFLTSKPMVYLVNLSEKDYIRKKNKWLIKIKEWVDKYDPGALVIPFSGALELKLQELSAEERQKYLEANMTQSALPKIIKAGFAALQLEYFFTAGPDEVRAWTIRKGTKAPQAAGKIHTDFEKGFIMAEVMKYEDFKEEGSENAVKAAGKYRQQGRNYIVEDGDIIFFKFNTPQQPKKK
# UniProt Q92530, sequence (Q92530 whole entry): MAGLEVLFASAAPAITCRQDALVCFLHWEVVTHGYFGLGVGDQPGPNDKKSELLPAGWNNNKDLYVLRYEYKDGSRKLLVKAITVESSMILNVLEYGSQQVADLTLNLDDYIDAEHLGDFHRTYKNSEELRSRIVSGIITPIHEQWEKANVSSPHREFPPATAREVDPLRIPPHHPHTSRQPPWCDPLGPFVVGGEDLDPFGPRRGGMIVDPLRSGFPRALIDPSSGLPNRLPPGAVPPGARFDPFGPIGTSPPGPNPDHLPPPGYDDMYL
# UniProt P50579, sequence (P50579 whole entry, looked up): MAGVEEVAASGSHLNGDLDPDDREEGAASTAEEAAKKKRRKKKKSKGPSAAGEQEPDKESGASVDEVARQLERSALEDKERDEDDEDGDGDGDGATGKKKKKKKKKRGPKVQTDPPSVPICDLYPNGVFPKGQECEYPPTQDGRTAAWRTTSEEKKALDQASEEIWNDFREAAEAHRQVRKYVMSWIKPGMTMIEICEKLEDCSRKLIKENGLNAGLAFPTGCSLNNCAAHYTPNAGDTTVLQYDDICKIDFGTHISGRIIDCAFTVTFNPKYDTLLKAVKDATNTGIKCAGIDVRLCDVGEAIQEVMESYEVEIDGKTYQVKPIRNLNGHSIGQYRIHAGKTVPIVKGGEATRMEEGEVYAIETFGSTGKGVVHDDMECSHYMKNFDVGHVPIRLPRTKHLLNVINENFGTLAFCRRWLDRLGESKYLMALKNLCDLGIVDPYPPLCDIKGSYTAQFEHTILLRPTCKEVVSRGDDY
# UniProt O94916, sequence (O94916 whole entry): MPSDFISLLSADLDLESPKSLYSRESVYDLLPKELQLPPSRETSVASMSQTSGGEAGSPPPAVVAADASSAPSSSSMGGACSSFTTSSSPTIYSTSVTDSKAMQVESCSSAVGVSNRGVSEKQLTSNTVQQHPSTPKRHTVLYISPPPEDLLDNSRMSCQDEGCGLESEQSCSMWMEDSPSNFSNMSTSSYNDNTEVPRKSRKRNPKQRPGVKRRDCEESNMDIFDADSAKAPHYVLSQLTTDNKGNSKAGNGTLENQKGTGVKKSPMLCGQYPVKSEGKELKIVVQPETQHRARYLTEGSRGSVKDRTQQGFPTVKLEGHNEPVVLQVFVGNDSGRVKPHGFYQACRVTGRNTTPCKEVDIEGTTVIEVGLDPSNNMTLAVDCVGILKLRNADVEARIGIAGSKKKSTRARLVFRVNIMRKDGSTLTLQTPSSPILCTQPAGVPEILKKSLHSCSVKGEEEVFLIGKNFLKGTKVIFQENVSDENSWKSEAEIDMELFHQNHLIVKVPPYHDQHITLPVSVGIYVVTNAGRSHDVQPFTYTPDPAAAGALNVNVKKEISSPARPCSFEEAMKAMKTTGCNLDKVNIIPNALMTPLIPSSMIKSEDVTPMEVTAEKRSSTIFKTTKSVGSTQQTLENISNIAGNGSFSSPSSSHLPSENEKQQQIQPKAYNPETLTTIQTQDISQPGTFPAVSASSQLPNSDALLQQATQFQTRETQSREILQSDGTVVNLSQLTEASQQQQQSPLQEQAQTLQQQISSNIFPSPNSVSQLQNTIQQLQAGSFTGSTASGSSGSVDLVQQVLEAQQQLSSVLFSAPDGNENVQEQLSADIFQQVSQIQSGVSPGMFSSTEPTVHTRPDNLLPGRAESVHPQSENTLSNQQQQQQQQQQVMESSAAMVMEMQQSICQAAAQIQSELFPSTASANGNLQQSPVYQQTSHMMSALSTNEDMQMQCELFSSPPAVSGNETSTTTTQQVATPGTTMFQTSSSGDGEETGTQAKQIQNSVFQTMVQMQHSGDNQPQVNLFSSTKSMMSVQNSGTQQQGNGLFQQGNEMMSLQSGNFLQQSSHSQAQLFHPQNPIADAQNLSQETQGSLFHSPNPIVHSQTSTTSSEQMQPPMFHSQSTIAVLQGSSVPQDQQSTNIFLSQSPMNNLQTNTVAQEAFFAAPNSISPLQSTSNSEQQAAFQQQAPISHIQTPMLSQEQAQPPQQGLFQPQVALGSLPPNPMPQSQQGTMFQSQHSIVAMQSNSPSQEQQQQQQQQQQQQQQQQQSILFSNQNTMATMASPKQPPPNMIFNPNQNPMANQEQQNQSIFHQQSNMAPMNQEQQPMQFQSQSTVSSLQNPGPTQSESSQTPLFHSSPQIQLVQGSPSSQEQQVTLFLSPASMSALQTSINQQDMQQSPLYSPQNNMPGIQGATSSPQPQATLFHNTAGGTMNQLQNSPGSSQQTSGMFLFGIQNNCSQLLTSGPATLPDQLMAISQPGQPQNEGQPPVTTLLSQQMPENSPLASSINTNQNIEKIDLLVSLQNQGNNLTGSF
# UniProt O00291, sequence (O00291 whole entry): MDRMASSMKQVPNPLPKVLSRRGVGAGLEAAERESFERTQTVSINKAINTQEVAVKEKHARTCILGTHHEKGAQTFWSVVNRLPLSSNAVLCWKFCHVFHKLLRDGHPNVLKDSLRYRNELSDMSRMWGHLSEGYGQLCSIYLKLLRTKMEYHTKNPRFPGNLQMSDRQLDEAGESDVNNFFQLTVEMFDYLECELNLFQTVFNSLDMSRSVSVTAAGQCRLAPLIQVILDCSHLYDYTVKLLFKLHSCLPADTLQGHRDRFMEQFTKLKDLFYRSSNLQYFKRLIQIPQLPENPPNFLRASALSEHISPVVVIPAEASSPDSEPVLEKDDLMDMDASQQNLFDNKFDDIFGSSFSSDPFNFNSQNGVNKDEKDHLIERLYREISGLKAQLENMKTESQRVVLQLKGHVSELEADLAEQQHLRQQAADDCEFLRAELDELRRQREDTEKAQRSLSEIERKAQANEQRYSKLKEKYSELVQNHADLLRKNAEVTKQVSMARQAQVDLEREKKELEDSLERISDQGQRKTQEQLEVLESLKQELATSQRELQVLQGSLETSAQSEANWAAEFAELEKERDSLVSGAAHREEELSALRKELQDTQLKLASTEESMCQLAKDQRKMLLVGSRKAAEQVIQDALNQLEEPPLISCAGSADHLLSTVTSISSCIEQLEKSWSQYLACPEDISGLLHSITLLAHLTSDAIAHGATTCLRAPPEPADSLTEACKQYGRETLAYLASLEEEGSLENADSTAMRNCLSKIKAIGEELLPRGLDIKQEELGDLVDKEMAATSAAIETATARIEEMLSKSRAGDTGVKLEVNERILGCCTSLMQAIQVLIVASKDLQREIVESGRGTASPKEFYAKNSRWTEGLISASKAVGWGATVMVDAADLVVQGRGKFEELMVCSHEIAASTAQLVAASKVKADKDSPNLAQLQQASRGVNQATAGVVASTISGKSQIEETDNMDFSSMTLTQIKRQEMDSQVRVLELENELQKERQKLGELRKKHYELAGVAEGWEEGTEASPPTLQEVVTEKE
# UniProt O43674, sequence (O43674 whole entry): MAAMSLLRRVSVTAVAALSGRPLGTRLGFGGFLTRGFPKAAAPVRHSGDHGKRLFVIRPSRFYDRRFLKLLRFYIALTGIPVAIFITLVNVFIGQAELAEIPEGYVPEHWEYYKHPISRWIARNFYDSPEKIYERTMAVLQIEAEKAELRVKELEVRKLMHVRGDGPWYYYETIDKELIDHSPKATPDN
# UniProt Q13347, sequence (Q13347 whole entry): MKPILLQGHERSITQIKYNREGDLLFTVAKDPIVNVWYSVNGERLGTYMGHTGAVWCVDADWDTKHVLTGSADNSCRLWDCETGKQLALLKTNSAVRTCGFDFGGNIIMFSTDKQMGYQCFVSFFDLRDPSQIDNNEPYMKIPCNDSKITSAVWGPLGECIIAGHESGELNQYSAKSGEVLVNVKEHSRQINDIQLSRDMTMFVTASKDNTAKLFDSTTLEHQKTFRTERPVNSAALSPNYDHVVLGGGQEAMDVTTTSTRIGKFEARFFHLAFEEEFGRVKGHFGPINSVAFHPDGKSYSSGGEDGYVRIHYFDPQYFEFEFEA
# UniProt O75347, sequence (O75347 whole entry): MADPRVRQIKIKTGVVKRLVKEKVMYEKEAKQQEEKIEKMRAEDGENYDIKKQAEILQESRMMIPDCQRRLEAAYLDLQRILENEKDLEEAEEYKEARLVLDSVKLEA
Target,thermal stability z-score (potassium arsenate),thermal stability z-score (lipoamide; [1]),thermal stability z-score (lipoamide; arsenate co-treatment: none)
HERC5 (UniProt Q9UII4),0.512,0.139,0.601
BUB1B (UniProt O60566),0.247,0.0397,0.232
RBM34 (UniProt P42696),-0.201,0.0729,-0.0422
TTC39C (UniProt Q8N584),0.0855,0.0518,0.22
NAA15 (UniProt Q9BXJ9),0.812,0.838,0.593
RAB10 (UniProt P61026),0.276,0.387,0.379
GSS (UniProt P48637),-0.183,-0.2,-0.141
RRAS (UniProt P10301),0.844,0.632,0.351
OLA1 (UniProt Q9NTK5),-0.463,0.522,0.49
ATPAF1 (UniProt Q5TC12),-0.64,-0.471,-0.084
FAM192A (UniProt Q9GZU8),-0.58,-0.00729,0.455
DCK (UniProt P27707),-5,0.519,0.335
SLC11A2 (UniProt P49281),0.512,-1.6,-0.179
KIAA1217 (UniProt Q5T5P2),0.188,-0.00757,-0.0174
FERMT2 (UniProt Q96AC1),0.203,0.0975,-0.153
NFAT5 (UniProt O94916),1.37,0.48,0.0594
MAPK1 (UniProt P28482),-0.175,0.246,-0.0239
TMUB2 (UniProt Q71RG4),2.27,1.9,1.78
GRB2 (UniProt P62993),0.0852,0.496,0.364
UBR2 (UniProt Q8IWV8),0.444,0.13,0.182
HP1BP3 (UniProt Q5SSJ5),-1.08,-0.693,-0.792
MRPL39 (UniProt Q9NYK5),0.057,-0.499,-0.225
CNOT7 (UniProt Q9UIV1),1.32,-0.248,0.895
EIF3I (UniProt Q13347),-0.363,0.544,0.0305
AK6 (UniProt Q9Y3D8),-2.09,-0.665,-0.877
NDUFB5 (UniProt O43674),0.226,-0.958,-0.151
DISP1 (UniProt Q96F81),-1.07,0.342,0.512
SPTBN1 (UniProt Q01082),-1.61,0.502,0.309

Target,thermal stability z-score (potassium arsenate),thermal stability z-score (lipoamide; [1]),thermal stability z-score (lipoamide; arsenate co-treatment: none)
DUT (UniProt P33316),-0.727,-0.171,0.377
KHSRP (UniProt Q92945),0.486,0.21,0.161
AXL (UniProt P30530),0.0984,0.0102,0.0513
METAP2 (UniProt P50579),0.409,0.0427,0.326
SNX27 (UniProt Q96L92),0.511,-0.141,0.167
CHCHD2 (UniProt Q9Y6H1),0.592,1.56,1.34
CYB5R3 (UniProt P00387),-0.832,1.07,-0.079
TMCO4 (UniProt Q5TGY1),-0.0739,-0.342,-0.363
CEP97 (UniProt Q8IW35),-0.411,-0.477,0.495
BLVRB (UniProt P30043),1.14,0.863,-0.0398
BRF1 (UniProt Q92994),0.035,-0.0333,-0.111
SLC39A14 (UniProt Q15043),-0.236,-0.0157,-0.137
CDC45 (UniProt O75419),-0.457,0.0843,0.0302
PPM1B (UniProt O75688),0.179,0.109,0.277
NUP107 (UniProt P57740),0.77,-0.163,-0.0082
NARFL (UniProt Q9H6Q4),-0.0417,0.327,0.0715
GFM2 (UniProt Q969S9),0.226,0.216,0.105
INPP5F (UniProt Q9Y2H2),0.13,-0.128,-0.261
DDX21 (UniProt Q9NR30),-1.35,0.693,0.249
RPL32 (UniProt P62910),-0.93,0.158,-0.028
AHSA1 (UniProt O95433),0.423,0.722,0.671
PSMF1 (UniProt Q92530),-0.0444,-0.319,-0.0828
RSRC1 (UniProt Q96IZ7),1.14,1.06,0.987
FLOT1 (UniProt O75955),-0.283,1.38,0.653
TBCA (UniProt O75347),0.264,0.458,1.12
IGF2BP1 (UniProt Q9NZI8),-0.379,-0.0135,0.286
HIP1 (UniProt O00291),0.215,0.0784,0.0537

# From the supplement of paper PMC12463676, “Small-molecule dissolution of stress granules by redox modulation benefits ALS models” (Nature Chemical Biology, 2025)
